Columns and labels:
Assay type in all cases: cell-based, human
[1] = Cytotoxic MTS assay, BJ; details: human, BJ cells (noncancerous foreskin fibroblasts); MTS, 72 h of incubation
Procedure: (§1) In vitro cytotoxic activity of final compounds 5–82 was evaluated after 3 days of incubation against eight cell lines derived from human solid tumors including lung (A549 cells) and colon (HCT116 and HCT116p53−/−) carcinomas, as well as leukemia cell lines (CCRF-CEM, CEM-DNR, K562, and K562-TAX) and osteosarcoma (U2OS cells). For comparison, non-malignant BJ and MRC-5 fibroblasts, and BJLD and MCR-5LD fibroblasts doxorubicin-resistant cell lines were used. Concentrations inhibiting the cell growth by 50% (IC50) were determined using a quantitative metabolic staining with 3-(4,5-dimethylthiazol-2yl)-5-(3-carboxymethoxyphenyl)-2-(4-sulfophenyl)-2H-tetrazolium (MTS) and are summarized in (Table 3).
(§2) Cytotoxic activity was determined by MTS assay following 72 h of incubation. IC50 is the lowest concentration that kills 50% of cells. The standard deviation in cytotoxicity assays is typically up to 20% of the average value. […] The tested cell lines: A549 (lung adenocarcinoma), BJ (noncancerous human fibroblasts from foreskin), BJLD (human lung fibroblast doxorubicin-resistant), CCRF-CEM (childhood T cell acute lymphoblastic leukemia), a daunorubicin-resistant subline of CCRF-CEM cells (CEM-DNR bulk), HCT116 (colorectal carcinoma), HCT116p53−/− (HCT116 with deleted p53 gene), K562 (chronic myeloid leukemia), K562-TAX (chronic myeloid leukemia paclitaxel-resistant subline), MRC-5 (noncancerous human lung fibroblasts), MRC-5LD (noncancerous human lung fibroblasts doxorubicin-resistant), and U2OS (osteosarcoma).
(§3) All cell lines were purchased from the American Tissue Culture Collection (ATCC). The A549 cell line is lung adenocarcinoma. MRC-5 and BJ cell lines were used as a non-tumor control and represent human fibroblasts. (MRC-5 LD and BJLD) are doxorubicin-resistant human lung fibroblast cell lines. The CCRF-CEM line is derived from T lymphoblastic leukemia, evincing high chemosensitivity, whereas K562 represent cells from an […] patient sample with bcr-abl translocation. The daunorubicin-resistant subline of CCRF-CEM cells (CEM-DNR bulk) and paclitaxel-resistant subline K562-TAX were selected in our laboratory by the cultivation of maternal cell lines in increasing concentrations of daunorubicin or paclitaxel, respectively. The CEM-DNR bulk cells overexpress MRP-1 and P-glycoprotein protein, whereas K562-TAX cells overexpress P-glycoprotein only. Both proteins belong to the family of ABC transporters and are involved in the primary and/or acquired multidrug-resistance phenomenon. The U2OS cell line is derived from osteosarcoma, HCT116 is a colorectal tumor cell line and its p53 gene knock-down counterpart (HCT116p53−/−, Horizon Discovery Ltd., Cambridge, UK) is a model of human cancers with p53 mutation frequently associated with poor prognosis. The cells were maintained in nunc/corning 80 cm^2 plastic tissue culture flasks and cultured in a cell culture medium according to ATCC or Horizon recommendations (DMEM/RPMI 1640 with 5 g/L glucose, 2 mM glutamine, 100 U/mL penicillin, […], 10% fetal calf serum, and NaHCO3).
(§4) The activity of compounds was determined using a standard 3-(4,5-dimethylthiazol-2-yl)-5-(3-carboxymethoxyphenyl)-2-(4-sulfophenyl)-2H-tetrazolium (MTS) and it was performed at the Institute of Molecular and Translational Medicine by a robotic platform (High-ResBiosolutions). Cell suspensions were prepared and diluted according to the particular cell type and the expected target cell density (25,000–35,000 cells/mL based on cell growth characteristics). Cells were added by automatic pipettor (30 µL) into 384-well microtiter plates. All tested compounds were dissolved in 100% DMSO and four-fold dilutions of the intended test concentration were added in 0.15 µL aliquots at time zero to the microtiter plate wells by the echo acoustic non-contact liquid handler Echo550 (Labcyte). […]

[2] = system: K562-TAX (chronic myeloid leukemia paclitaxel-resistant subline); assay: Cytotoxic MTS assay, K562-TAX; details: Homo sapiens, K562-Tax; MTS, 72 h of incubation; read-out: Cytotoxic activity IC50, K562-TAX
Procedure: as §1, §2, §3, §4

[3] = system: K562 (chronic myeloid leukemia); assay: Cytotoxic MTS assay, K562; details: Homo sapiens, K562; MTS, 72 h of incubation; read-out: Cytotoxic activity IC50, K562
Procedure: as §1, §2, §3, §4

[4] = system: U2OS (osteosarcoma); assay: Cytotoxic MTS assay, U2OS; details: Homo sapiens, U2OS; MTS, 72 h of incubation; read-out: Cytotoxic activity IC50, U2OS
Procedure: as §1, §2, §3, §4

[5] = Cytotoxic MTS assay, BJLD; details: human, BJLD cells (fibroblasts, doxorubicin-resistant); MTS, 72 h of incubation
Procedure: as §1, §2, §3, §4

[6] = system: HCT116 (colorectal carcinoma); assay: Cytotoxic MTS assay, HCT116; details: Homo sapiens, HCT-116; MTS, 72 h of incubation; read-out: Cytotoxic activity IC50, HCT116
Procedure: as §1, §2, §3, §4

[7] = Cytotoxic MTS assay, MRC-5; details: human, MRC-5 cells (noncancerous lung fibroblasts); MTS, 72 h of incubation
Procedure: as §1, §2, §3, §4

[8] = system: A549 (lung adenocarcinoma); assay: Cytotoxic MTS assay, A549; details: Homo sapiens, A549; MTS, 72 h of incubation; read-out: Cytotoxic activity IC50, A549
Procedure: as §1, §2, §3, §4

[9] = system: HCT116p53−/− (HCT116 with deleted p53 gene); assay: Cytotoxic MTS assay, HCT116p53−/−; details: Homo sapiens, HCT-116; MTS, 72 h of incubation; read-out: Cytotoxic activity IC50, HCT116-p53
Procedure: as §1, §2, §3, §4

[10] = system: CEM-DNR bulk (daunorubicin-resistant subline of CCRF-CEM cells); assay: Cytotoxic MTS assay, CEM-DNR; details: Homo sapiens, CEM-DNR; MTS, 72 h of incubation; read-out: Cytotoxic activity IC50, CEM-DNR
Procedure: as §1, §2, §3, §4

[11] = Cytotoxic MTS assay, MRC-5LD; details: human; MTS, 72 h of incubation; read-out: Cytotoxic activity IC50, MRC5-LD
Procedure: as §1, §2, §3, §4

[12] = system: CCRF-CEM (childhood T cell acute lymphoblastic leukemia); assay: Cytotoxic MTS assay, CCRF-CEM; details: Homo sapiens, CCRF-CEM; MTS, 72 h of incubation; read-out: Cytotoxic activity IC50, CCRF-CEM
Procedure: as §1, §2, §3, §4

Row | Compound | IC50 at 72 h [1] [µM] | IC50 [2] [µM] | IC50 [3] [µM] | IC50 [4] [µM] | IC50 at 72 h [5] [µM] | IC50 [6] [µM] | IC50 at 72 h [7] [µM] | IC50 [8] [µM] | IC50 [9] [µM] | IC50 [10] [µM] | IC50 at 72 h [11] [µM] | IC50 [12] [µM]
1 | Cc1cc(C)cc(C(=O)OCC[S+]([O-])c2ccnc3cc(Cl)ccc23)c1 (stereo not drawn) [Compound 50, 2-[(7-Chloroquinolin-4-yl)sulfinyl]ethyl-3,5-dimethylbenzoate] | 30.8 | 9.58 | 15.2 | 8.57 | 28.5 | 7.99 | 26.9 | 24 | 7.1 | 10 | 22.3 | 1.32
2 | Cc1ccc([N+](=O)[O-])c(C(=O)OCC[S+]([O-])c2ccnc3cc(Cl)ccc23)c1 (stereo not drawn) [Compound 49, 2-[(7-Chloroquinolin-4-yl)sulfinyl]ethyl-5-methyl-2-nitrobenzoate] | 30.7 | 6.4 | 12.3 | 11.2 | 23.5 | 7 | > 50 | 15.7 | 7.56 | 7.75 | > 50 | 1.34
3 | COc1cc(C(=O)OCCC[S+]([O-])c2ccnc3cc(Cl)ccc23)cc(OC)c1OC (stereo not drawn) [Compound 57, 3-[(7-Chloroquinolin-4-yl)sulfinyl]propyl-3,4,5-trimethoxybenzoate] | 33 | 14.6 | 17.4 | 21.3 | 31.9 | 19.3 | 29.9 | 30.5 | 14.8 | 16 | 25.8 | 1.51
4 | COc1ccc(C(=O)OCC[S+]([O-])c2ccnc3cc(Cl)ccc23)cc1[N+](=O)[O-] (stereo not drawn) [Compound 48, 2-[(7-Chloroquinolin-4-yl)sulfinyl]ethyl-4-methoxy-3-nitrobenzoate] | 29.2 | 9.03 | 16.9 | 18.6 | 27.5 | 17 | 27.8 | 25 | 10 | 12.9 | 24 | 1.42
5 | COc1ccc(C(=O)OCCC[S+]([O-])c2ccnc3cc(Cl)ccc23)cc1 (stereo not drawn) [Compound 53, 3-[(7-Chloroquinolin-4-yl)sulfinyl]propyl-4-methoxybenzoate] | 30 | 6.98 | 13.9 | 12.8 | 28.2 | 12.5 | 27.9 | 23.6 | 8.51 | 8.71 | 22.4 | 1.31
6 | Cc1cc(C)cc(C(=O)OCCC[S+]([O-])c2ccnc3cc(Cl)ccc23)c1 (stereo not drawn) [Compound 61, 3-[(7-Chloroquinolin-4-yl)sulfinyl]propyl-3,5-dimethylbenzoate] | 30.3 | 6.76 | 12.7 | 8.1 | 27.6 | 8.26 | 26.1 | 10.9 | 6.89 | 8.35 | 22.1 | 1.05

Reference: PMC9607427, “Novel 7-Chloro-(4-thioalkylquinoline) Derivatives: Synthesis and Antiproliferative Activity through Inducing Apoptosis and DNA/RNA Damage” (Pharmaceuticals, 2022)
